Measured values taken from PMC9412534, “Diindolylmethane Derivatives: New Selective Blockers for T-Type Calcium Channels” (Membranes, 2022).

Tests used:
A549 cells = experiment: Cell viability MTT assay, A549; assay type: cell-based, human; details: for viability at 50 µM: A549, 50 µM, n = 4; for IC50: n = 3
Description: (§1) Human breast cancer cell line MCF-7 and T-47D, lung cancer cell line A549, and colon cancer cell line HT-29 were cultured under 5% carbon dioxide at 37 °C in DMEM Glutamax (Gibco, Life Technologies) supplemented with 10% (v/v) FBS. They were split in a ratio of 1:3–1:6 (ideally 2–4 × 10,000 cells/cm^2) when they reached 70–80% confluence using 0.25% Trypsin-EDTA. For cell viability MTT assay, cells were seeded into 96-well clear bottom culture plates (Corning, Lowell, MA, USA) at a density of 5 × 10^3 cells/well and settled at 37 °C for 24 h.
(§2) Seeded cells were treated with various concentrations of compounds for desired time period (24, 48 and 72 h). After the treatments, the media were removed from each well, and replaced with 25 μL of serum-free media and 25 μL of MTT Reagent (cat. no., ab211091; Abcam, Cambridge, MA, USA). The plate was then incubated at 37 °C for 3 h, and 75 μL of MTT Solvent (cat. no., ab211091; Abcam) was added into each well after incubation. The absorbance was evaluated at 590 nm. Cell-wells treated with 0.1% DMSO were used as positive control and no cell-wells were used as background control.

CaV2.2 = target: T1, CaV2.2 (Homo sapiens, UniProt Q00975); experiment: HVA N-type calcium channel FLIPR assay in SH-SY5Y cells; assay type: cell-based; details: 10 µM nifedipine present, n = 3, read-out: IC50 CaV2.2 (HVA CaVs)
T1 construct: endogenous in cells; host or cells: SH-SY5Y human neuroblastoma cells
Description: The human embryonic kidney 293 (HEK 293) cell lines (from Emmanuel Bourinet, Montpellier, France) stably expressing CaV3.2 or CaV3.3 were cultured under 5% carbon dioxide at 37 °C in Dulbecco’s Modified Eagle Medium (DMEM) Glutamax (Gibco, Life Technologies, Carlsbad, CA, USA) supplemented with 10% (v/v) fetal bovine serum (FBS), 100 U/mL penicillin, 100 μg/mL streptomycin (Gibco, Life Technologies, Carlsbad, CA, USA), and 750 μg/mL geneticin (G418) (Gibco, Life Technologies). The Chinese Hamster Ovary (CHO) cell lines (Emmanuel Bourinet, Montpellier, France) expressing CaV3.1 were cultured under 5% carbon dioxide at 37 °C in Alpha Minimum Essential Media (MEM) Glutamax (Gibco, Life Technologies), supplemented with 10% (v/v) fetal bovine serum (FBS) and 300 μg/mL geneticin (G418) (Gibco, Life Technologies). The human neuroblastoma SH-SY5Y cells (Victor Diaz, Goettingen, Germany) were cultured under 5% carbon dioxide at 37 °C in RPMI 1640 antibiotic-free medium (Invitrogen, Carlsbad, CA, USA), supplemented with 15% FBS and 2 mM GlutaMAX™ (Invitrogen). D-PBS (Gibco, Life Technologies) was used to wash the cells, and 0.25% Trypsin-EDTA (Gibco, Life Technologies) was used to detach cells from the flask surface. They were split in a ratio of 1:5 (ideally 1000 cells/cm^2) when they reached 70–80% confluence (every 2–3 days). Transiently transfected CaV3.1 HEK293 T cells were used in FLIPR Assays. HEK 293 T cells were cultured under 5% carbon dioxide at 37 °C in DMEM supplemented with 10% (v/v) FBS. D-PBS was used to wash the cells, and 0.25% Trypsin-EDTA was used to detach cells from the flask surface. The cells were split and seeded at 6 million cells per T175 flask, to reach 70–80% confluence after 24 h. The next day, 12 μg DNA of human CaV3.1 was incubated in 900 μL serum-free DMEM with 36 μL FuGENE HD transfection reagent (Promega Corporation, Madison, WI, USA) (1:3 DNA/Fugene ratio) for 20 min, and then the mixture was added into the cell flask slowly, drop by drop. After the transfection, the cells were cultured under 5% carbon dioxide at 37 °C for 24 h and then moved to a 28 °C incubator.
SH-SY5Y cells were seeded into 384-well black wall clear bottom plates at a density of 15,000 cells per well, resulting in 90–95% confluence after 24 h. The media were then removed from the wells and replaced with 20 μL of 10% calcium 4 dye (Molecular Devices) in physiological salt solution (PSS) (containing 5.9 mM KCl, 1.4 mM MgCl2, 10 mM HEPES, 1.2 mM NaH2 PO4, 5 mM NaHCO3, 140 mM NaCl, 11.5 mM glucose, and 1.8 mM CaCl2, pH 7.4) with 0.1% BSA. As reported, for N-type calcium channel FLIPR assays the cells were pre-incubated with 10 µM nifedipine added in the dye to ensure full inhibition of L-type calcium responses. For L-type calcium channel FLIPR assays, the cells were pre-incubated with 1 µM CVID added in the dye to ensure full inhibition of N-type calcium responses. Positive control on the first reagent plate contained 15 μL of PSS (0.1% BSA), whereas PSS (0.1% BSA) containing 1 µM CVID and 10 µM nifedipine (final concentration) was used as a negative control. The fluorescence readings were recorded and converted as described previously, and agonist containing 90 mM KCl + 5 mM CaCl2 was used in the second addition.

T-47D cells = experiment: Cell viability MTT assay, T-47D; assay type: cell-based, human; details: for viability at 50 µM: n = 4; for IC50: n = 3
Description: as §1, §2

MCF-7 cells = experiment: Cell viability MTT assay, MCF-7; assay type: cell-based, human; details: for viability at 50 µM: MCF7, 50 µM, n = 4; for IC50: n = 3
Description: as §1, §2

[1] = Homo sapiens, A549, 72 h, 72 h treatment
[2] = Homo sapiens, T47D, 72 h treatment
[3] = Homo sapiens, T47D, 72 h, 72 h treatment
[4] = Homo sapiens, MCF7, 72 h, 72 h treatment

T1 sequence (Q00975 whole entry): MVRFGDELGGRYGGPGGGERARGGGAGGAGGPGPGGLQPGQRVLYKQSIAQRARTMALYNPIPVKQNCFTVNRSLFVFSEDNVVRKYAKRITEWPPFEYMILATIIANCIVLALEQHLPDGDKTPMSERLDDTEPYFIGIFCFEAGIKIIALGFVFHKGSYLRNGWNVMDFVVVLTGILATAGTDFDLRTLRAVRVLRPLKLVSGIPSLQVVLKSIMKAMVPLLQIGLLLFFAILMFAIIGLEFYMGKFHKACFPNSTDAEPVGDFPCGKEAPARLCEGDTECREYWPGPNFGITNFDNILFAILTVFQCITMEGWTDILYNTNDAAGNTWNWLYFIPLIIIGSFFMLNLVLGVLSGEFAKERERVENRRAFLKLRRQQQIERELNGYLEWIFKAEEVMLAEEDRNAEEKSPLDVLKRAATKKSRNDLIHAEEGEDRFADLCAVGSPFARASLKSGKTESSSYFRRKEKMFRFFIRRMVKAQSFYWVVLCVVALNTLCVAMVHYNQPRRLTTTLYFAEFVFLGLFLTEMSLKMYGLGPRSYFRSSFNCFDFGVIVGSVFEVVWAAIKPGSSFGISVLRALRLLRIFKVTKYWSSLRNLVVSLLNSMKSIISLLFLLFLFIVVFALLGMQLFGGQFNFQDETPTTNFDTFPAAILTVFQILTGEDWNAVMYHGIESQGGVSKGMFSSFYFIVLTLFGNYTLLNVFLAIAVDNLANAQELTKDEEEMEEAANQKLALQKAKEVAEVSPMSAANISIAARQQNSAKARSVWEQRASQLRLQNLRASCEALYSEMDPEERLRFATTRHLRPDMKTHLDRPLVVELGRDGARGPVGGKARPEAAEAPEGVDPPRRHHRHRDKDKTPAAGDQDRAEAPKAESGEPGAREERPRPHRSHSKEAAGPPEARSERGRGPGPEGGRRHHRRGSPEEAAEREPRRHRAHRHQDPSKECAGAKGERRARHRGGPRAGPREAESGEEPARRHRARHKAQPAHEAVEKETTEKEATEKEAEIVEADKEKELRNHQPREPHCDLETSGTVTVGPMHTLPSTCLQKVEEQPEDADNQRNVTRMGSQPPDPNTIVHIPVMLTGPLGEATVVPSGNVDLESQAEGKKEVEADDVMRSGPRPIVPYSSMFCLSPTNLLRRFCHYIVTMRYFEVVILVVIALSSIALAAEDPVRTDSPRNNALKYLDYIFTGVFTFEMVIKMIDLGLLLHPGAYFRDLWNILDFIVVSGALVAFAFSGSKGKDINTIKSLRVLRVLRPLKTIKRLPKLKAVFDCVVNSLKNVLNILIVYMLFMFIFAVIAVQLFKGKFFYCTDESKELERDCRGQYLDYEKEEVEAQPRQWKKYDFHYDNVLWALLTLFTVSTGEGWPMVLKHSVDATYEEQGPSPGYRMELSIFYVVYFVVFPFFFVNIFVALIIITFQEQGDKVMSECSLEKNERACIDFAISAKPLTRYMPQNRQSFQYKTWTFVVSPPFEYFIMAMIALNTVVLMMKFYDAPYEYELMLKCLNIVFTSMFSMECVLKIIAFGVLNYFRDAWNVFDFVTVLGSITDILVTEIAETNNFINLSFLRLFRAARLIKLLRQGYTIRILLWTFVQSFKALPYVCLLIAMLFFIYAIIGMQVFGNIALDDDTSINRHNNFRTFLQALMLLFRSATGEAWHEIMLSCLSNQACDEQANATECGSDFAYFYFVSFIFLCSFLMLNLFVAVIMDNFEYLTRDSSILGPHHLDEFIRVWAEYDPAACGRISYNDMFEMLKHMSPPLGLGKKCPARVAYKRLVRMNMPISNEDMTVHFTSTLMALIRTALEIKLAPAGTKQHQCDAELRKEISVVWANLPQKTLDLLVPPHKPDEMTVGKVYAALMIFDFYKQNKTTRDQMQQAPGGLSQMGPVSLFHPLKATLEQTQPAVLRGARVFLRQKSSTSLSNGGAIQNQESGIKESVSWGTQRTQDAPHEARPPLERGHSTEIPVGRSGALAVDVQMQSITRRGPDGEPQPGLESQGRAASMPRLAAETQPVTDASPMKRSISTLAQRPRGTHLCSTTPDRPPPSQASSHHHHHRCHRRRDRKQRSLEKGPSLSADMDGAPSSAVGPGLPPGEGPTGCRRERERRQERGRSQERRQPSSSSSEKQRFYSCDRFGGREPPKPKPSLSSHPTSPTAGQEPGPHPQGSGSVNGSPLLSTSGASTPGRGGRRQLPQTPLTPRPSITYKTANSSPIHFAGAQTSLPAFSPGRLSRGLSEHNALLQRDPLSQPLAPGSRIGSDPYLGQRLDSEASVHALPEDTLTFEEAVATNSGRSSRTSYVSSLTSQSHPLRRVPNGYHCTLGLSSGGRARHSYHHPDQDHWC
T1 sequence (P54289 25-956 partner limits assumed): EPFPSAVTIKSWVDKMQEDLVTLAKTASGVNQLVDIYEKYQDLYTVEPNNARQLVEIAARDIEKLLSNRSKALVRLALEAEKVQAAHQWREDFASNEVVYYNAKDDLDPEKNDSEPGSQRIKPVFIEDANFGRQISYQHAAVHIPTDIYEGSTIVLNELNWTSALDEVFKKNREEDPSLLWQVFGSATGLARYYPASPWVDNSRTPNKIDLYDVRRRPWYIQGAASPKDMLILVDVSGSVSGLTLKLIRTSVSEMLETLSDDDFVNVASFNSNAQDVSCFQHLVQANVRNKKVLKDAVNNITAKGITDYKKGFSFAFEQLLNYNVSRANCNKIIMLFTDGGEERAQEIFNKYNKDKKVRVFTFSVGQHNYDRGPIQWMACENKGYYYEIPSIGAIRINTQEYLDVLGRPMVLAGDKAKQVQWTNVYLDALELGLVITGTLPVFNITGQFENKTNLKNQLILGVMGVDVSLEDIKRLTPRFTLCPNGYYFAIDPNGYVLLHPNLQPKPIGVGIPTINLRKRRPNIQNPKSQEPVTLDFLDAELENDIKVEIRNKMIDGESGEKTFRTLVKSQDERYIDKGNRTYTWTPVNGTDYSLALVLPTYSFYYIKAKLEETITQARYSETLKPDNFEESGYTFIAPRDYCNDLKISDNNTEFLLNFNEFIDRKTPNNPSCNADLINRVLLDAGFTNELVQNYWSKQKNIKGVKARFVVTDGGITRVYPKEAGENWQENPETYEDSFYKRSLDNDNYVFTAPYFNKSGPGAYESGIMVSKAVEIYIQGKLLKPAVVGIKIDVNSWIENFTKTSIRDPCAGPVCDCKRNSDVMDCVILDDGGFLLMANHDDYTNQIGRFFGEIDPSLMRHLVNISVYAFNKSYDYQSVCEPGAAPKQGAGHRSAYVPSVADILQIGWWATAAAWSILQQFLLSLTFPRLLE
T1 sequence (P54289 957-1103 partner limits assumed): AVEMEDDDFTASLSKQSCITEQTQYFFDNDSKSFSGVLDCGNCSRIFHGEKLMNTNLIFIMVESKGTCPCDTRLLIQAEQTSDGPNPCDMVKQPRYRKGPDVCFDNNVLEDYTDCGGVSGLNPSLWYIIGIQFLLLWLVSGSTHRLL
T1 sequence (P54284 whole entry partner): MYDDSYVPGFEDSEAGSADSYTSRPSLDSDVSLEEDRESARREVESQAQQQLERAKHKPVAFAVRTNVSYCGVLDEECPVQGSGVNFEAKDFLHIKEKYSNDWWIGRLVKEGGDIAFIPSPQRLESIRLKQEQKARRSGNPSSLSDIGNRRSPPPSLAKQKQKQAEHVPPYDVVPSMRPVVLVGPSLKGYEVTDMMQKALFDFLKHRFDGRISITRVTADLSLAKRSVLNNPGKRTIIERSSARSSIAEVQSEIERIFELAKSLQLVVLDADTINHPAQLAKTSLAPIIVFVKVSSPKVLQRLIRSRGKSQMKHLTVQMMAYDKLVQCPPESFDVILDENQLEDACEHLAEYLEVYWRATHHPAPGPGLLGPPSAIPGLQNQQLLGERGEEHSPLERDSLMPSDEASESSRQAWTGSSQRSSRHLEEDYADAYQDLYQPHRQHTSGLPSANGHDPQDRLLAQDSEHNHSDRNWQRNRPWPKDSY

| IC50 (A549 cells; [1]) | IC50 (CaV2.2) | IC50 (T-47D cells; [3]) | IC50 (MCF-7 cells; [4]) | IC50 (A549 cells; 72 h treatment) | IC50 (A549 cells; Homo sapiens, A549, 24 h, 24 h treatment) | IC50 (A549 cells; Homo sapiens, A549, 48 h, 48 h treatment) | IC50 (T-47D cells; 72 h treatment) | IC50 (T-47D cells; Homo sapiens, T47D, 24 h, 24 h treatment) | IC50 (T-47D cells; Homo sapiens, T47D, 48 h, 48 h treatment) | IC50 (MCF-7 cells; 72 h treatment) | IC50 (MCF-7 cells; Homo sapiens, MCF7, 24 h, 24 h treatment) | Structure (SMILES) | viability at 50 µM (A549 cells; Homo sapiens, 72 h treatment) | viability at 50 µM (T-47D cells; [2]) | viability at 50 µM (MCF-7 cells; Homo sapiens, 72 h treatment) |
| --- | --- | --- | --- | --- | --- | --- | --- | --- | --- | --- | --- | --- | --- | --- | --- |
| 47 µM | 56.7 ± 2.61 µM | 36 µM | 27 µM |  |  |  |  |  |  |  |  | c1ccc2c(Cc3c[nH]c4ccccc34)c[nH]c2c1 [DIM, 3,3′-diindolylmethane, reference compound] | 55.6 ± 1.13% | 18.9 ± 1.15% | 3.65 ± 0.24% |
| 3 µM | > 200 µM | 4 µM | 6 µM | 3.5 µM | 8 µM | 4.7 µM | 4.1 µM | 13.8 µM | 3.9 µM | 6.1 µM | 9.8 µM | O=C(c1c[nH]c2cc(Br)ccc12)c1c[nH]c2cc(Br)ccc12 [IV] | 2.92 ± 0.29% | 6.14 ± 0.55% | 6.35 ± 0.46% |
| 66 µM | 119 ± 6.51 µM | 44 µM | 42 µM |  |  |  |  |  |  |  |  | O=C(c1c[nH]c2ccccc12)c1c[nH]c2ccccc12 [DIM-one, 3,3′-diindolylmethanone] | 81.3 ± 3% | 50.6 ± 2.08% | 52.3 ± 3.12% |

| Structure (SMILES) | IC50 (A549 cells; [1]) | IC50 (CaV2.2) | IC50 (T-47D cells; [3]) | IC50 (MCF-7 cells; [4]) | IC50 (A549 cells; 72 h treatment) | IC50 (A549 cells; Homo sapiens, A549, 24 h, 24 h treatment) | IC50 (A549 cells; Homo sapiens, A549, 48 h, 48 h treatment) | IC50 (T-47D cells; 72 h treatment) | IC50 (T-47D cells; Homo sapiens, T47D, 24 h, 24 h treatment) | IC50 (T-47D cells; Homo sapiens, T47D, 48 h, 48 h treatment) | IC50 (MCF-7 cells; 72 h treatment) | IC50 (MCF-7 cells; Homo sapiens, MCF7, 24 h, 24 h treatment) | viability at 50 µM (A549 cells; Homo sapiens, 72 h treatment) | viability at 50 µM (T-47D cells; [2]) | viability at 50 µM (MCF-7 cells; Homo sapiens, 72 h treatment) |
| --- | --- | --- | --- | --- | --- | --- | --- | --- | --- | --- | --- | --- | --- | --- | --- |
| O=C(c1cn(Cc2ccccc2)c2ccccc12)c1cn(Cc2ccccc2)c2ccccc12 [IX, bis(1-benzyl-1H-indol-3-yl)methanone] |  | 82 ± 5.3 µM |  |  |  |  |  |  |  |  |  |  |  |  |  |
